The values below come from US20180049996A1, “THERAPEUTIC AGENT FOR CHRONIC RESPIRATORY DISEASE AND COMPOSITION FOR INHIBITING CARDIAC FIBROSIS” (NIPPON HYPOX LABORATORIES INCORPORATED, priority 2015, published 2018).

For assay [1], the system named is Lung Inflammation Induced by Tobacco Smoke. Description: BAL inflammatory cell numbers, lung inflammation induced by tobacco smoke (COPD model). In kind it is in vivo, C57BL/6N mice. The following applies: HTHQ 10 and 20 mg/kg/day oral; tobacco smoke 10 days + LPS; compared to COPD model group. How it is done:
6 week old male SPF C57BL/6N mice, 20 to 25 g of body weight, were purchased from CORETEC INC. (South Korea).
The tests were conducted as follows. The mice in the COPD (chronic obstructive pulmonary disease) model group of the test groups were exposed to tobacco smoke for 1 hour per day (8 cigarettes/day) for 10 days and LPS (5 μg/50 μL/mouse) was intranasally administered to the mice on day 8 after the start of the tests. Roflumilast, the positive control substance, was orally administered to the mice in the positive control substance-administered group at 10 mg/kg body weight/day, and then they were exposed to tobacco smoke for 10 days starting from 1 hour after the administration of roflumilast, and LPS (5 μg/50 μL/mouse) was intranasally administered to the mice on day 8 after the start of the tests. […]
The mice in the test groups were euthanized 72 hours after the LPS administration and the mice in the normal control group were euthanized on day 11 after the start of the tests by intraperitoneal injection of pentobarbital (Hanrimu pharmaceutical, South Korea) at 50 mg/kg and then the bronchi were excised. […] After preparing slide samples from 100 μL of BAL cell fluid using Cytospin (4° C., 1000 rpm×5 min), the cell numbers of inflammatory cells (neutrophil, macrophages) present in the BAL fluid were counted using a Diff-Quik stain kit.

Assay [2] deals with Myocardial Disorder Induced by Doxorubicin. As to the kind of experiment: Histopathologic examination of the hearts (transmission electron microscope), myocardial disorder induced by doxorubicin. In kind it is in vivo, female SD rats. The following applies: Test group 2: doxorubicin + HTHQ 50 mg/kg; day 7. As to the method:
Doxorubicin is used to produce disease-model animals of cardiomyopathy. The doxorubicin and 2,3,5-trimethylhydroquinone-1-hexyl ether (HTHQ) as the hydroquinone derivative represented by the general formula (1) described above of the present invention were simultaneously administered to female SD rats of 4 week old after birth to examine the effect of the action. The test groups consisted of the control group to which sterile saline was administered; test group 1 to which doxorubicin (13 mg/kg body weight) alone was administered; test group 2 to which doxorubicin (13 mg/kg body weight) and HTHQ (50 mg/kg body weight) were administered in combination; and test group 3 to which doxorubicin (13 mg/kg body weight), HTHQ (50 mg/kg body weight) and recombinant human erythropoietin (400 IU/kg body weight) were administered in combination. […] The test group 3 is used to confirm the presence or absence of the inhibitory effect brought about by combining HTHQ and rHuEPO on myocardial disorder.
Doxorubicin was orally administered in a single dose to the rats in test groups 1 to 3. 2,3,5-trimethylhydroquinone-1-hexyl ether (HTHQ) was orally administered to the rats in test groups 2 and 3 twice in total: 3 days before the administration of doxorubicin and on the day of the administration. […]

Assay [3] has as its system Creatine phosphokinase (CPK). As to the kind of experiment: Creatine phosphokinase (CPK) value in blood, myocardial disorder induced by doxorubicin. In kind it is in vivo, female SD rats. The following applies: Test group 2: doxorubicin + HTHQ 50 mg/kg; day 14; p<0.05. How it is done: Doxorubicin is used to produce disease-model animals of cardiomyopathy. The doxorubicin and 2,3,5-trimethylhydroquinone-1-hexyl ether (HTHQ) as the hydroquinone derivative represented by the general formula (1) described above of the present invention were simultaneously administered to female SD rats of 4 week old after birth to examine the effect of the action. The test groups consisted of the control group to which sterile saline was administered; test group 1 to which doxorubicin (13 mg/kg body weight) alone was administered; test group 2 to which doxorubicin (13 mg/kg body weight) and HTHQ (50 mg/kg body weight) were administered in combination; and test group 3 to which doxorubicin (13 mg/kg body weight), HTHQ (50 mg/kg body weight) and recombinant human erythropoietin (400 IU/kg body weight) were administered in combination. The recombinant human erythropoietin (rHuEPO) is mainly used in the treatment of renal anemia etc., and has the effect to protect myocardium. The test group 3 is used to confirm the presence or absence of the inhibitory effect brought about by combining HTHQ and rHuEPO on myocardial disorder.
Doxorubicin was orally administered in a single dose to the rats in test groups 1 to 3. […]

For `CCCCCCOc1cc(C)c(O)c(C)c1C` [HTHQ, 2,3,5-trimethylhydroquinone-1-hexyl ether], the “infiltration of inflammatory cells (neutrophil, macrophages) in BAL fluid” value in assay [1] is recorded as “effectively reduced”. In addition, the “findings in myocardial cells (transmission electron microscope)” value in assay [2] is reported as “loss of striations was alleviated”. Also, the “creatine phosphokinase (CPK) value” in assay [3] is “significantly lower compared to that of test group 1”.
